Experimental data: patent publication US6815446B1, “Selective antagonists of A2B adenosine receptors” (Vanderbilt University, priority 1999, dated 2004)
Where two headings read alike, the source gives them in different places. Values belong to the compound of their own block, whether it stands above or below them.

Tests used:
A2B Receptor [1] = biological target: T1, A2B Receptor (Homo sapiens, UniProt P29275); details: background statement; cited from earlier work
T1 sequence (P29275 1-332): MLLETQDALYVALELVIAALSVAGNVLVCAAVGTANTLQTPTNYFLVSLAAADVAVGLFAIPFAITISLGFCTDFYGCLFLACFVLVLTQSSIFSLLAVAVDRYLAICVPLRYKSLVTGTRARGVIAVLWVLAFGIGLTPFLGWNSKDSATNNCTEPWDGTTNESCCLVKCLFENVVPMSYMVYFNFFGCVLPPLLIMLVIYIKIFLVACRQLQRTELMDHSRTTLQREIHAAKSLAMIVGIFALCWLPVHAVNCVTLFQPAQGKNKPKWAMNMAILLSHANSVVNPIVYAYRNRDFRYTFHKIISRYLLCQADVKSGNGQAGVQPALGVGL

rat A3 = biological target: T2, rat A3 (Rattus norvegicus, UniProt P28647); details: rat (r); [125I]APNEA, CHO cells transfected with rat A3; read-out: Antagonist potency (K1 or KB) A3 Receptor; cited from earlier work
T2 construct: expressed in transfected cells
T2 sequence (P28647 1-320): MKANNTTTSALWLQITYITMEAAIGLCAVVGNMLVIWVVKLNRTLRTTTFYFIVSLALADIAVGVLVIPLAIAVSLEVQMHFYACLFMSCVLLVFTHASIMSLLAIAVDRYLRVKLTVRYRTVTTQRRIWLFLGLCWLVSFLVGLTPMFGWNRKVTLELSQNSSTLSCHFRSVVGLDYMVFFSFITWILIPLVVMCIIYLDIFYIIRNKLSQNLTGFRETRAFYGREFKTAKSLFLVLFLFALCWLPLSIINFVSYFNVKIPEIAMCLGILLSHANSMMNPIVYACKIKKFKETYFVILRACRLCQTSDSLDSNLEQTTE

A2A Receptor [2] = biological target: A2A Receptor (Rattus norvegicus, UniProt P30543); details: read-out: Antagonist potency (K1 or KB) A2A Receptor; rat (r); CGS 21680 radioligand, rat striatal membranes; cited from earlier work
A2B Receptor [3] = biological target: T1, A2B Receptor; assay: Inhibition of NECA-stimulated cAMP in HEL (human erythroleukemia) cells, Schild analysis; type: cell-based; set-up: endogenous in cells; host or cells: human erythroleukemia (HEL) cells; details: for Schild analysis, type of antagonism at A2B receptors: NECA cAMP dose-response curves in human erythroleukemia cells with increasing antagonist concentrations, FIG. 1; for Kb: human (h), NECA-stimulated cAMP in HEL cells, read-out: Antagonist potency (K1 or KB) A2B Receptor
Description: A Schild analysis derived from dose-response curves for accumulation of cAMP produced by NECA in human erythroleukemia cells in the absence and in the presence of increasing concentrations of the antagonists. […] The intercept at the x-axis is an estimate of the Ki of the antagonists.

A1 Receptor = biological target: T3, A1 Receptor (Rattus norvegicus, UniProt P25099); details: read-out: Antagonist potency (K1 or KB) A1 Receptor; rat (r); [3H]PIA, rat brain membranes; cited from earlier work
T3 sequence (P25099 1-326): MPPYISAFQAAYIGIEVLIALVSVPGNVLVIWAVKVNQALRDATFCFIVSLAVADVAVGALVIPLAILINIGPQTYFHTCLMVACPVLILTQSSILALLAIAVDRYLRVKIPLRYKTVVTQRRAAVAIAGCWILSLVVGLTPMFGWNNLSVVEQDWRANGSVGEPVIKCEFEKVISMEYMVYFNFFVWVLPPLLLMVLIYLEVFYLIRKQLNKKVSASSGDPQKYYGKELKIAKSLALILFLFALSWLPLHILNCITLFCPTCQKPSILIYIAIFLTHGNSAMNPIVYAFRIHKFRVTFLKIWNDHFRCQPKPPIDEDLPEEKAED

human A1 [4] = biological target: T4, human A1 (Homo sapiens, UniProt P30542); details: human (h); [3H]DPCPX, HEK-293 cells transfected with human A1; read-out: Antagonist potency (K1 or KB) A1 Receptor; cited from earlier work
T4 construct: expressed in transfected cells
T4 sequence (P30542 1-326): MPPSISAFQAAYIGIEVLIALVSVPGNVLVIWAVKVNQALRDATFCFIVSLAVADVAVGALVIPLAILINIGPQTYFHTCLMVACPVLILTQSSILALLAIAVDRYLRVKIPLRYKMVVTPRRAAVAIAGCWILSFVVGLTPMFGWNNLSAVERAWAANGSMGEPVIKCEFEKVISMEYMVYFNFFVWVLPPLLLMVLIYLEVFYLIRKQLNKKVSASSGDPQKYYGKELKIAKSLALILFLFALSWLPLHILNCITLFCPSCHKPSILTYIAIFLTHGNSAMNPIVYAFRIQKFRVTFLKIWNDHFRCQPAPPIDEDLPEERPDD

A2A Receptor [5] = biological target: T5, A2A Receptor (Homo sapiens, UniProt P29274); assay: Inhibition of CGS 21680-stimulated cAMP in HMC-1 cells; type: cell-based; details: human (h), read-out: Antagonist potency (K1 or KB) A2A Receptor
T5 construct: endogenous in cells; host or cells: HMC-1 cells

human A1 [6] = biological target: T4, human A1; assay: Displacement of [3H]DPCPX from membranes of CHO cells transfected with human A1; type: binding; details: read-out: Antagonist potency (K1 or KB) A1 Receptor
human A3 = biological target: T6, human A3 (Homo sapiens, UniProt P0DMS8); assay: Displacement of [3H]NECA from CHO cells transfected with human A3; type: binding; details: read-out: Antagonist potency (K1 or KB) A3 Receptor
T6 construct: expressed in transfected cells
T6 sequence (P0DMS8 1-318): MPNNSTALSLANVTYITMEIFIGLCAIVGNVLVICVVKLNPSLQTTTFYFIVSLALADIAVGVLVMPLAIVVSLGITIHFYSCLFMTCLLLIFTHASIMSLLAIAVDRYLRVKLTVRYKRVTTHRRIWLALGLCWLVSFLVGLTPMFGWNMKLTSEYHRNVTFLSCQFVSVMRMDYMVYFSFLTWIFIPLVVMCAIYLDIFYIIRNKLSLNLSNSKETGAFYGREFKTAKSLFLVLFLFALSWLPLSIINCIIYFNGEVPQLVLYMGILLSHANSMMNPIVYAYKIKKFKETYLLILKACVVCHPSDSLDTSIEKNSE

T5 sequence (P29274 whole entry): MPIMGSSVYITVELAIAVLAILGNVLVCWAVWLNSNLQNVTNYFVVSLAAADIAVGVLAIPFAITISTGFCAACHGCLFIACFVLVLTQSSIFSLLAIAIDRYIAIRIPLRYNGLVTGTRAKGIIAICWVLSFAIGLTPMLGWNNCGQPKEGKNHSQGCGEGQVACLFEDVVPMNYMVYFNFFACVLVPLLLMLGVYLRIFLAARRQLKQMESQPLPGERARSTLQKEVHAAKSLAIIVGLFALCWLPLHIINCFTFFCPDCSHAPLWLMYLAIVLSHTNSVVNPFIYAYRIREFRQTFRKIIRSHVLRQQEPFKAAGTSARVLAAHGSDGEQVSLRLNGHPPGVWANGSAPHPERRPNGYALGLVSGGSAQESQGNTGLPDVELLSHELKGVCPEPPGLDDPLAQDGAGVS
Sequence of A2A Receptor (Rattus norvegicus, UniProt P30543) (P30543 whole entry): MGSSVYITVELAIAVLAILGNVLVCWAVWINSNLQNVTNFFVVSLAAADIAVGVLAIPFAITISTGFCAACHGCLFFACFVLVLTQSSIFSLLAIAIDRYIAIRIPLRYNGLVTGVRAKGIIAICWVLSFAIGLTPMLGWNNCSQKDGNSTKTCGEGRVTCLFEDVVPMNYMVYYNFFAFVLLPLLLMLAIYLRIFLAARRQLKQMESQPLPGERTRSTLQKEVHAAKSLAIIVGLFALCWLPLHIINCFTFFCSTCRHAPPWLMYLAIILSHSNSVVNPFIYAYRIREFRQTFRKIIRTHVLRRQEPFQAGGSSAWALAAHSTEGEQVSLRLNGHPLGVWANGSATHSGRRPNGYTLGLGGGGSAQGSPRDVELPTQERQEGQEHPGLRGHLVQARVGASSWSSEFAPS

- Schild analysis, type of antagonism at A2B receptors (A2B Receptor [3]): competitive antagonism
- Kb (A2B Receptor [3]): 0.14 µM
Structure (SMILES): CCCn1c(=O)c2[nH]c(-c3ccc(S(=O)(=O)O)cc3)nc2n(CCC)c1=O [DPSPX, 1,3-dipropyl-8-p-sulfophenylxanthine]
- Affinity of xanthine antagonists at A2B receptors (A2B Receptor [1]): mid to high nM range
- Kb (rat A3): > 100 µM
- Kb (A2A Receptor [2]): 0.79 µM
- Kb (A1 Receptor): 0.14 µM

- Schild analysis, type of antagonism at A2B receptors (A2B Receptor [3]): competitive antagonism
Structure (SMILES): CCCn1c(=O)[nH]c(=O)c2nc[nH]c21 [Enprofylline]
- Kb (human A1 [4]): 156 µM

- Kb (A2A Receptor [5]): 20 µM
- Kb (human A1 [6]): 31 µM
- Schild analysis, type of antagonism at A2B receptors (A2B Receptor [3]): competitive antagonism
- Potency compared with enprofylline (A2B Receptor [3]; comparison from the potency table): much higher than that of enprofylline
- Kb (A2B Receptor [3]): 0.525 µM
- Kb (human A3): 53 µM
Structure (SMILES): CC(C)Cn1c(=O)[nH]c(=O)c2[nH]c(N3CCCC3)nc21 [Formula (I)]

Structure (SMILES): CCNC(=O)[C@H]1O[C@@H](n2cnc3c(NCc4ccccc4)ncnc32)[C@@H](O)C1O (stereo partly shown) [N^6-benzyl NECA]
- Agonist activity or affinity at A2B receptors (A2B Receptor [1]): very low affinity

Structure (SMILES): Cn1c(=O)c2[nH]cnc2n(C)c1=O [Theophylline]
- Kb (rat A3): > 100 µM
